Reference: patent US9718788B2, “Heteroaryl compounds useful as inhibitors of E1 activating enzymes” (MILLENNIUM PHARMACEUTICALS, INC., priority 2006, dated 2017)

Target: T1, recombinant human NAE enzyme (Homo sapiens, UniProt Q8TBC4)
T1 construct: His (N); made in house; host or cells: Sf9 insect cells (baculovirus, Bac-to-Bac)
T1 sequence (Q8TBC4 1-463): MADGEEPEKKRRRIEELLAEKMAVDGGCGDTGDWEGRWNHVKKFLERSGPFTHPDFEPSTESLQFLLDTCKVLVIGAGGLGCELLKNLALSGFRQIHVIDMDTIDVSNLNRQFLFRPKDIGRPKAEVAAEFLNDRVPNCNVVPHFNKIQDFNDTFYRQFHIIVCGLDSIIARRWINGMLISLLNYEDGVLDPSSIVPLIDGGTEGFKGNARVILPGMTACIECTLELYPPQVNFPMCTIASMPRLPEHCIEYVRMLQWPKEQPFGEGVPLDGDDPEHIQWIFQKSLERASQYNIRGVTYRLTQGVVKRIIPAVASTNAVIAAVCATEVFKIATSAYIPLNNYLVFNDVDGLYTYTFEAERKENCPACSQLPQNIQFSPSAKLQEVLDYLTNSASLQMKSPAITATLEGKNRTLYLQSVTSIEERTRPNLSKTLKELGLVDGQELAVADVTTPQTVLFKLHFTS
T1 sequence (Q13564 1-534 partner): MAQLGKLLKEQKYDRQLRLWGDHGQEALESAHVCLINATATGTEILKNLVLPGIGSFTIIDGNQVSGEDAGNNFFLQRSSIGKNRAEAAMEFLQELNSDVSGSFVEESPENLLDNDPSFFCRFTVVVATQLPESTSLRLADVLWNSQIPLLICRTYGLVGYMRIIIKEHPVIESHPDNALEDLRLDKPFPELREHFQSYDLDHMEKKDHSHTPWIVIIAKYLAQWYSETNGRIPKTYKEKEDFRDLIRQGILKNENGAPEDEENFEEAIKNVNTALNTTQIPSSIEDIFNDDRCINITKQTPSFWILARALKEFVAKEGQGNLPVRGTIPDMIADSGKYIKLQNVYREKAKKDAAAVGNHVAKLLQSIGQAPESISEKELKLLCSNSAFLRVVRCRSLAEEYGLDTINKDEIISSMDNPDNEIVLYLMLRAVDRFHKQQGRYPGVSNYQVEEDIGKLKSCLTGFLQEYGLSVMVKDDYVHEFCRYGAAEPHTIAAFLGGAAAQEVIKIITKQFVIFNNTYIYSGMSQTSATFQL
Test: Nedd8-Activating Enzyme (NAE) HTRF Assay
Format: biochemical
Conditions: 20 μM ATP, bound given in nM
Outline: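 Recombinant human NAE (NAEα/His-NAEβ from Sf9 cells) at 0.20 nM with 20 μM ATP, 0.01 μM Ubc12-GST and 0.075 μM Nedd8-Flag in HEPES pH 7.5, 105 min at 24° C. EDTA stop; Eu-anti-FLAG/APC-anti-GST HTRF read after 1 h.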

IC50: ≤ 500 nM
Compound: NS(=O)(=O)OC[C@@H]1C[C@@H](Oc2ncnc3nc(-c4ccc(N5CCCC5)c5ccccc45)[nH]c23)C[C@@H]1O [Compound I-139, ((1S,2S,4R)-2-hydroxy-4-{[8-(4-pyrrolidin-1-yl-1-naphthyl)-7H-purin-6-yl]oxy}cyclopentyl)methyl sulfamate]
